Source: paper PMC12974487, “Inhibition of FicD-mediated AMPylation and deAMPylation by isoprenoid diphosphates” (Proceedings of the National Academy of Sciences of the …, 2026)
“Also recorded” adds a separate entry of the source.

Legend:
[1] = biological target: AvrB (Pseudomonas savastanoi pv. glycinea, UniProt P13835); test: Rhamnosylation of GST-Rin4 by AvrB; assay type: biochemical, Pseudomonas syringae
Protocol: Finally, we explored the inhibitory effects of GPP/FPP on other Fido proteins to see if these metabolites could serve as generic inhibitors of Fido domains. To test this specificity, we performed in vitro activity assays with GPP/FPP and two constitutively active Fido proteins from bacteria: VopS from Vibrio parahaemolyticus ([25]) and AvrB from Pseudomonas syringae ([30]).
(250mM Tris pH 6.8, 10% Sodium dodecyl sulfate, 50% glycerol, 50mM DTT, 0.05% Bromophenol blue) and heated at 98°C for 5 minutes.
Rhamnosylation assays were performed as previously described (2). Briefly, AvrB and GST-Rin4 were combined in the presence of GPP or FPP, where applicable. Reactions were started by the addition of UDP-Rhamnose at a final concentration of […] and reactions were incubated for 1 hour at room temperature. Reactions were stopped by the addition of 5X SDS sample buffer […]
Equal volumes of samples suspended in 5X SDS sample buffer were resolved on hand-cast 10% 1.5mm Tris-Glycine gels with the BioRad Mini-PROTEAN Tetra Cell system. […]
Intact mass analysis of proteins was performed by the UT Southwestern Proteomics Core. Intact protein samples were analyzed by LC/MS, using a Sciex X500B QTOF mass spectrometer operating in positive ion mode, coupled to an Agilent 1290 Infinity II HPLC. […]

[2] = system: Glutathione S-transferase (GST); test: DSF specificity control with GST; assay type: binding; conditions: same concentrations as measured for FicD
Description: To ensure specificity of binding to the FicD enzyme, we performed DSF with Glutathione S-transferase (GST) and BiP in the presence of the same increasing metabolite concentrations. […] Like FicD, BiP is an ATP/Mg^2+ dependent protein that could potentially leverage the same binding mode as GPP/FPP. […]
across samples. Extremely low or missing values were floored to metabolite-specific limits of detection. For each dialysis replicate, log₂-transformed abundances were computed, and log₂(fold change) was calculated as the difference between protein and metabolite chambers. Injection replicates were averaged prior to fold-change calculation. Dialysis replicates with missing chamber measurements were excluded. Technical replicates were retained for outlier detection. Metabolites dominated by noise were removed based on comparison of a null model (intercept only) versus a protein-specific model and RMSE > 0.5 across dialysis replicates. Remaining metabolites were classified as “protein signal” and retained for analysis. For each metabolite–protein pair, up to one extreme outlier was removed using a z-score cutoff of 4. Dialysis replicates were then averaged to yield a consensus fold-change per protein–metabolite pair. […]

AvrB, sequence (P13835 whole entry, the tested form may be a part): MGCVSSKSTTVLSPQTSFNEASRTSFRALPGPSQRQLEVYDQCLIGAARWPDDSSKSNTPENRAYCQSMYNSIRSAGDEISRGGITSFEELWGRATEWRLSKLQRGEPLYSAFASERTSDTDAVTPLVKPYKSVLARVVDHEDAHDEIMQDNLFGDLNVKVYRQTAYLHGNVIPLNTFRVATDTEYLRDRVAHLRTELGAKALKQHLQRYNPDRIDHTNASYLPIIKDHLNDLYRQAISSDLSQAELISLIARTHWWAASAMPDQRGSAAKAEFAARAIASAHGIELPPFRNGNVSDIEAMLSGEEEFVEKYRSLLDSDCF

For CC(C)=CCC/C(C)=C/CC/C(C)=C/COP(=O)(O)OP(=O)(O)O [FPP, farnesyl-pyrophosphate], the “effect on rhamnosylation activity of AvrB” value [1] was “Neither GPP nor FPP affected; also recorded: not inhibited” and the “change in GST melt curves or Tm” value [2] was “Neither GPP nor FPP elicited a change”.
For CC(C)=CCC/C(C)=C/COP(=O)(O)OP(=O)(O)O [GPP, geranyl-pyrophosphate], the “effect on rhamnosylation activity of AvrB” value [1] was “Neither GPP nor FPP affected” and the “change in GST melt curves or Tm” value [2] was “Neither GPP nor FPP elicited a change”.
